Reference: PubChem BioAssay AID1259407 (Chemical Carcinogenesis Research Information System (CCRIS), 2018)
The source made the active and inactive calls. No rule for the calls is given here.

Tested on: CCRIS mutagenicity, Ames/micronucleus/aberration tests
Assay: CCRIS mutagenicity studies

Measured: mutagenic call

Cc1c2ccccc2c(C)c2c1ccc1ccccc12
inactive: End Point: IN VIVO MICRONUCLEUS, Test System: MAMMARY GLAND CELLS, Species: RAT, Strain/Sex: SPRAGUE-DAWLEY/FEMALE, Route: INTRAGASTRIC inactive; negative | Test System: AMES SALMONELLA TYPHIMURIUM, Strain/Indicator: TA1535, Metabolic Activation: NONE, Method: SPIRAL ASSAY inactive; negative | Test System: AMES SALMONELLA TYPHIMURIUM, Strain/Indicator: TA1535, Metabolic Activation: NONE, Method: STANDARD PLATE inactive; negative
active: End Point: IN VITRO CHROMOSOMAL ABERRATIONS, Test System: CHL/IU CELLS, Metabolic Activation: RAT, LIVER, S-9, PHENOBARBITAL AND 5,6-BENZOFLAVONE active; positive (structural changes) | End Point: IN VITRO MICRONUCLEUS, Test System: CHL/IU CELLS, Metabolic Activation: RAT, LIVER, S-9, PHENOBARBITAL AND 5,6-BENZOFLAVONE active; positive | End Point: IN VITRO MICRONUCLEUS, Test System: CHO CELLS, Metabolic Activation: RAT, LIVER, S-9, AROCLOR 1254 active; positive | End Point: IN VITRO MICRONUCLEUS, Test System: V79 CELLS, Metabolic Activation: RAT, LIVER, S-9, AROCLOR 1254 active; positive | End Point: IN VIVO CHROMOSOMAL ABERRATIONS, Test System: MAMMARY GLAND CELLS, USING DUAL PROBE FISH, Species: RAT, Strain/Sex: SPRAGUE-DAWLEY/FEMALE, Route: INTRAGASTRIC active; positive (hyperdiploidy and polyploidy) | End Point: IN VIVO MICRONUCLEUS, Test System: BLOOD ERYTHROCYTES, Species: MOUSE, Strain/Sex: CD-1/MALE, Route: ORAL active; positive | Test System: AMES SALMONELLA TYPHIMURIUM, Strain/Indicator: TA97, Metabolic Activation: NONE, Method: STANDARD PLATE active; positive | Test System: AMES SALMONELLA TYPHIMURIUM, Strain/Indicator: TA97, Metabolic Activation: RAT, LIVER, S-9, PCB, Method: STANDARD PLATE active; positive | Test System: AMES SALMONELLA TYPHIMURIUM, Strain/Indicator: TA98, Metabolic Activation: NONE, Method: SPIRAL ASSAY active; positive | Test System: AMES SALMONELLA TYPHIMURIUM, Strain/Indicator: TA98, Metabolic Activation: RAT, LIVER, S-9, AROCLOR 1254, Method: SPIRAL ASSAY active; positive | Test System: AMES SALMONELLA TYPHIMURIUM, Strain/Indicator: TA98, Metabolic Activation: RAT, LIVER, S-9, AROCLOR 1254, Method: STANDARD PLATE active; positive | Test System: AMES SALMONELLA TYPHIMURIUM, Strain/Indicator: TA98, Metabolic Activation: RAT, LIVER, S-9, PCB, Method: STANDARD PLATE active; positive | Test System: AMES SALMONELLA TYPHIMURIUM, Strain/Indicator: TA98, Method: STANDARD PLATE active; positive | Test System: AMES SALMONELLA TYPHIMURIUM, Strain/Indicator: TA100, Metabolic Activation: MOUSE, LIVER, MICROSOMES, BENZO[E]PYRENE AND TCDD, Method: STANDARD PLATE active; positive | Test System: AMES SALMONELLA TYPHIMURIUM, Strain/Indicator: TA100, Metabolic Activation: NONE, Method: SPIRAL ASSAY active; positive | Test System: AMES SALMONELLA TYPHIMURIUM, Strain/Indicator: TA100, Metabolic Activation: RAT, INTACT HEPATOCYTES, AROCLOR 1254, Method: PREINCUBATION active; positive | Test System: AMES SALMONELLA TYPHIMURIUM, Strain/Indicator: TA100, Metabolic Activation: RAT, LIVER, MICROSOMES, 3-METHYLCHOLANTHRENE, Method: PREINCUBATION active; positive | Test System: AMES SALMONELLA TYPHIMURIUM, Strain/Indicator: TA100, Metabolic Activation: RAT, LIVER, MICROSOMES, SODIUM PHENOBARBITAL, Method: PREINCUBATION active; positive | Test System: AMES SALMONELLA TYPHIMURIUM, Strain/Indicator: TA100, Metabolic Activation: RAT, LIVER, MICROSOMES, SUDAN III, Method: PREINCUBATION active; positive | Test System: AMES SALMONELLA TYPHIMURIUM, Strain/Indicator: TA100, Metabolic Activation: RAT, LIVER, MICROSOMES, Method: PREINCUBATION active; positive | Test System: AMES SALMONELLA TYPHIMURIUM, Strain/Indicator: TA100, Metabolic Activation: RAT, LIVER, S-9, AROCLOR 1254, Method: SPIRAL ASSAY active; positive | Test System: AMES SALMONELLA TYPHIMURIUM, Strain/Indicator: TA100, Metabolic Activation: RAT, LIVER, S-9, AROCLOR 1254, Method: STANDARD PLATE active; positive | Test System: AMES SALMONELLA TYPHIMURIUM, Strain/Indicator: TA100, Metabolic Activation: RAT, LIVER, S-9, EUGENOL, Method: PREINCUBATION active; positive | Test System: AMES SALMONELLA TYPHIMURIUM, Strain/Indicator: TA100, Metabolic Activation: RAT, LIVER, S-9, KC500 OR PHENOBARBITAL, Method: LIQUID SUSPENSION active; positive | Test System: AMES SALMONELLA TYPHIMURIUM, Strain/Indicator: TA100, Metabolic Activation: RAT, LIVER, S-9, PCB, Method: STANDARD PLATE active; positive | Test System: AMES SALMONELLA TYPHIMURIUM, Strain/Indicator: TA100, Metabolic Activation: RAT, LIVER, S-9, PHENOBARBITAL, Method: STANDARD PLATE active; positive | Test System: AMES SALMONELLA TYPHIMURIUM, Strain/Indicator: TA100, Metabolic Activation: RAT, LIVER, S-9, Method: PREINCUBATION active; positive | Test System: AMES SALMONELLA TYPHIMURIUM, Strain/Indicator: TA100, Metabolic Activation: RAT, NADPH-FORTIFIED HOMOGENIZED HEPATOCYTES, AROCLOR 1254, Method: PREINCUBATION active; positive | Test System: AMES SALMONELLA TYPHIMURIUM, Strain/Indicator: TA100, Metabolic Activation: RAT, SONICATED HEPATOCYTES, AROCLOR 1254, Method: PREINCUBATION active; positive | Test System: AMES SALMONELLA TYPHIMURIUM, Strain/Indicator: TA100, Method: STANDARD PLATE active; positive
